From ChEMBL document CHEMBL5120900, “Structure-Based Discovery of a Series of NSD2-PWWP1 Inhibitors” (J Med Chem, 2022)
Calls of active or inactive are those of the source. No cut-off for these calls is given here.

What was measured:
[1] = target: T1, Histone-lysine N-methyltransferase NSD2 (Homo sapiens) (UniProt O96028); assay: Inhibition of NSD2 in human KMS-11 cells assessed as decrease in NCAM1 gene expression at 10 uM incubated for 72 hrs by RT-PCR analysis; format: cell-based
T1 sequence (whole entry): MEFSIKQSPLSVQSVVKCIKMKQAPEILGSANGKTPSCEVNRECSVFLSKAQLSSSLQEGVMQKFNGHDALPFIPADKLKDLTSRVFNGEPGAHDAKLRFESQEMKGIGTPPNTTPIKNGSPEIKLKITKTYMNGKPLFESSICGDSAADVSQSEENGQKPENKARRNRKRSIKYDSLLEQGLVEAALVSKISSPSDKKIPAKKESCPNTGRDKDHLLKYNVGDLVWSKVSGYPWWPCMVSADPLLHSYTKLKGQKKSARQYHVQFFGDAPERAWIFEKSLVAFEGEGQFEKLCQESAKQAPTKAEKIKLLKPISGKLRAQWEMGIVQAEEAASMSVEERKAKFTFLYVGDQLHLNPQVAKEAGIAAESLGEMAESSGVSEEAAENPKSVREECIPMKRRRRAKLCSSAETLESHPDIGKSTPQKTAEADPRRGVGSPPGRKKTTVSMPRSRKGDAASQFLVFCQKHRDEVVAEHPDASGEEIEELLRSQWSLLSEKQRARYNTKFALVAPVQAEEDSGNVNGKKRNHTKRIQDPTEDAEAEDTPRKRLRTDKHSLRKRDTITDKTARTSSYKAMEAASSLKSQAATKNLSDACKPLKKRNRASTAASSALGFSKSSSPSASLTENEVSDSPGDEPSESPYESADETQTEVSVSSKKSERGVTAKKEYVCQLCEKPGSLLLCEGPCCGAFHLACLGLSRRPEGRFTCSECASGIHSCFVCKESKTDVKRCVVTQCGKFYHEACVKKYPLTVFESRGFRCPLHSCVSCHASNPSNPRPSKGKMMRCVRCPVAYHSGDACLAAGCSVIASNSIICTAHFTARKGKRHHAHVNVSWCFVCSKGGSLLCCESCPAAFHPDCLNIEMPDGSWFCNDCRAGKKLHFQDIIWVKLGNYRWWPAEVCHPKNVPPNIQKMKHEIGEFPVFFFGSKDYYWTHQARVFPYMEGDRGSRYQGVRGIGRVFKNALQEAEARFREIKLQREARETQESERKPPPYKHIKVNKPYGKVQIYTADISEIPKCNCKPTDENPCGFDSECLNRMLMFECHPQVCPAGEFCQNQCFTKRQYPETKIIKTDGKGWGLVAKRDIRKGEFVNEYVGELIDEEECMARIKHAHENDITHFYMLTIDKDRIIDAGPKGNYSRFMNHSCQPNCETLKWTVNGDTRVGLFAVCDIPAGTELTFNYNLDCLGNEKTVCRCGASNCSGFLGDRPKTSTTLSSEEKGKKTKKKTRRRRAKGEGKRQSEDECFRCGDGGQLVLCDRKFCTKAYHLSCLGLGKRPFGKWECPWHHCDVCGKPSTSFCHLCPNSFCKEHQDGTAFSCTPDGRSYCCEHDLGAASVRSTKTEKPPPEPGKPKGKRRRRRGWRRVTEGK

[2] = target: T2, Histone-lysine N-methyltransferase NSD2 (Homo sapiens, UniProt O96028); assay: Binding affinity to N-terminal His6/Sumo-tagged NSD2 PWWP1 domain (211 to 350 residues) (unknown origin) expressed in Escherichia coli BL21 (DE3) using ATKAARKSAPATGGV-Lys (me)2-KPHRYRPG polypeptide as substrate incubated for 3 hrs by HTRF assay
T2 sequence (O96028 whole entry): T1 sequence (whole entry)

[3] = tested on: MV4-11; assay: Induction of apoptosis in human MV4-11 cells assessed as viable cells at 5 uM measured after 72 hrs by Annexin V FITC/PI staining based flow cytometry analysis (reference value: 91.7%); format: functional; conditions: read-out: Activity
[4] = tested on: MV4-11; assay: Induction of apoptosis in human MV4-11 cells assessed as early apoptotic cells at 5 uM measured after 72 hrs by Annexin V FITC/PI staining based flow cytometry analysis (reference value: 4.58 %); format: functional
[5] = tested on: KMS-11; assay: Induction of apoptosis in human KMS-11 cells assessed as late apoptotic cells at 5 uM measured after 72 hrs by Annexin V FITC/PI staining based flow cytometry analysis (reference value: 13.3 %); format: functional
[6] = target: T1, Histone-lysine N-methyltransferase NSD2 (Homo sapiens); assay: Inhibition of NSD2 in human RS4-11 cells assessed as decrease in TGFA gene expression at 10 uM incubated for 72 hrs by RT-PCR analysis; format: cell-based
[7] = tested on: KMS-11; assay: Antiproliferative activity against human KMS-11 cells assessed as inhibition of cell proliferation measured after 6 days by CCK8 assay; format: functional, cell-based; conditions: KMS-11, 144 h
[8] = tested on: KMS-11; assay: Induction of apoptosis in human KMS-11 cells assessed as early apoptotic cells at 5 uM measured after 72 hrs by Annexin V FITC/PI staining based flow cytometry analysis (reference value: 16.5 %); format: functional
[9] = target: T1, Histone-lysine N-methyltransferase NSD2 (Homo sapiens); assay: Inhibition of NSD2 in human RS4-11 cells assessed as decrease in RRAS2 gene expression at 10 uM incubated for 72 hrs by RT-PCR analysis; format: cell-based
[10] = target: T1, Histone-lysine N-methyltransferase NSD2 (Homo sapiens); assay: Inhibition of NSD2 in human KMS-11 cells assessed as decrease in PAK1 gene expression at 10 uM incubated for 72 hrs by RT-PCR analysis; format: cell-based
[11] = tested on: KMS-11; assay: Induction of apoptosis in human KMS-11 cells assessed as viable cells at 10 uM measured after 72 hrs by Annexin V FITC/PI staining based flow cytometry analysis (reference value: 69.4%); format: functional; conditions: read-out: Activity
[12] = target: T1, Histone-lysine N-methyltransferase NSD2 (Homo sapiens); assay: Inhibition of NSD2 in human RS4-11 cells assessed as decrease in TEMEL2 gene expression at 10 uM incubated for 72 hrs by RT-PCR analysis; format: cell-based
[13] = target: T1, Histone-lysine N-methyltransferase NSD2 (Homo sapiens); assay: Inhibition of NSD2 in human KMS-11 cells assessed as decrease in RRAS2 gene expression at 10 uM incubated for 72 hrs by RT-PCR analysis; format: cell-based
[14] = target: T1, Histone-lysine N-methyltransferase NSD2 (Homo sapiens); assay: Inhibition of NSD2 in human KMS-11 cells assessed as decrease in TEMEL2 gene expression at 10 uM incubated for 72 hrs by RT-PCR analysis; format: cell-based
[15] = tested on: MV4-11; assay: Induction of apoptosis in human MV4-11 cells assessed as viable cells at 10 uM measured after 72 hrs by Annexin V FITC/PI staining based flow cytometry analysis (reference value: 91.7%); format: functional; conditions: read-out: Activity
[16] = tested on: KMS-11; assay: Cell cycle arrest in human KMS-11 cells assessed as increase in accumulation of G0/G1 phase at 5 to 10 uM measured after 24 hrs by PI staining based flow cytometric analysis; format: functional; conditions: dose 5-10 µM
[17] = tested on: MV4-11; assay: Induction of apoptosis in human MV4-11 cells assessed as late apoptotic cells at 5 uM measured after 72 hrs by Annexin V FITC/PI staining based flow cytometry analysis (reference value: 3.02%); format: functional
[18] = tested on: KMS-11; assay: Induction of apoptosis in human KMS-11 cells assessed as late apoptotic cells at 10 uM measured after 72 hrs by Annexin V FITC/PI staining based flow cytometry analysis (reference value: 13.3 %); format: functional
[19] = tested on: MV4-11; assay: Induction of apoptosis in human MV4-11 cells assessed as early apoptotic cells at 10 uM measured after 72 hrs by Annexin V FITC/PI staining based flow cytometry analysis (reference value: 4.58 %); format: functional

inhibition [1]: Active
IC50 [2]: 0.11 µM
inhibition [6]: Active
inhibition [9]: Active
inhibition [10]: Active
inhibition [12]: Active
inhibition [13]: Active
inhibition [14]: Active
Compound: Cc1cc(CN2CCC(N)CC2)cc(C)c1-c1ncn(C)c1-c1ccc(C#N)c2ccccc12
viability at 5 µM [3]: 91%
Activity [4]: 6.26%
Activity [5]: 16.5%
IC50 [7]: 8.43 µM
Activity [8]: 21.1%
viability at 10 µM [11]: 36.8%
viability at 10 µM [15]: 37.3%
Activity [16]: Active
Activity [17]: 2.37%
Activity [18]: 32.7%
Activity [19]: 41.3%
